Patent US20230174936A1, “IMMUNOSUPPRESSANT-RESISTANT T-CELLS FOR ADOPTIVE IMMUNOTHERAPY” (CHARITÉ - UNIVERSITÄTSMEDIZIN BERLIN, priority 2020, published 2023)
Entries after “also recorded” stand apart in the source; their conditions may differ.

Experiments:
[1] = system: CMV-specific T-cell products; experiment: CMV-specific stimulation at day 21, intracellular cytokines by flow cytometry; type: cell-based, human
Description: FIG. 2: Functional profiles of CMV-specific T-cell products with disrupted FKBP12 CMV-specific stimulation of T-cell products at day 21 of culture using antigen-presenting cells (autologous lymphoblastic B-cell lines) pulsed with overlapping peptide pools of CMVIE-1 and CMVpp65 (6 h stimulation). Cytokines were captured in T-cells by addition of Brefeldin A after 1 h of stimulation and cells were stained using a fixation/permeabilization kit and fluorescently 1a-belled antibodies. Data were acquired by multicolor flow cytometry. Immunosuppressants were added where indicated at the following clinically relevant doses: Tac = 6 ng/ml Tacrolimus; CsA ═ 120 ng/ml Cyclosporine A; Tac/Pred/MPA = 6 ng/ml Tacrolimus + 0.57 µg/ml Prednisolone + 2.7 µg/ml Mycophenolic acid. Stars symbolize p-values < 0.05, which were determined by tests for normal distribution (Shapiro-Wilk and Kolmogorov-Smirnov tests), followed by one-way ANOVA (normally distributed data sets) or Friedman test (not normally distributed data sets) and paired t-tests (normally distributed data sets) or Wilcoxon matched pairs signed rank tests (not normally distributed data sets) as posttests. […]

[2] = system: Regulatory T cells; experiment: Treg expansion in medium with or without calcineurin inhibitors; type: cell-based, human; conditions: Tac 6 ng/ml
Description: Edited and control Treg cells were subsequently expanded in medium with or without different calcineurin inhibitors and subsequently analysed for cell expansion (A) and with flow cytometry (B+C). […] CTLA4 is known to suppress T cells and modulate pro-inflammatory responses by dendritic cells. […] Light bars are untouched expanded Treg, dark bars are FKBP12^k.o.expanded Treg. Tac was used at 6 ng/ml, CsA was used at 125 ng/ml, which corresponds to pharmacological doses that may, e.g., found in patient serum.
FKBP12^KO and control Treg cells were subsequently expanded in medium with or without different calcineurin inhibitors and subsequently analysed for cell expansion (FIG. 11 A) and with flow cytometry (FIG. 11 B+C). […] CTLA4 is known to suppress T cells and modulate pro-inflammatory responses by dendritic cells.

[3] = system: K562 cells; experiment: NK92 cytotoxicity in co-culture with K562; type: cell-based, human; conditions: 1:1 with K562, n = 1
Description: FIG. 19: Killing efficiency pf FKBP12^KO NK cells NK92 were electroporated with Cas9 protein and sgRNA#1(Table 1). After 5 days they were incubated with K562 cells at a ratio of 1:1. Killing capacity was calculated by the reduction in frequency of K562 cells. n = 1.
We performed a proof-of-principle experiment to confirm feasibility of FKBP12^KO in the NK cell line NK92. Four days prior to the experiment, FKBP12^KO NK92 cells were electroporated with Cas9 + FKBP12 sgRNA#1 (Table 1). NK cell cytotoxicity was assessed by co-culture with the MHC class I deficient erythroleukemia cell line K562. To this end, NK92 and CFSE-labeled K562 cells were mixed at a 1:1 ratio. After a total of 8 hours, the reaction was stopped by washing with cold 1X PBS. The cells were stained with Life Dead UV before fixation and permeabilization (IC Fix/Perm Kit, Thermo Fisher). Fixation was performed for 30 minutes at RT. The stained cells were analyzed with a Cytoflex LX. Analysis was performed with FlowJo v10.

[4] = system: target cells loaded with SARS-CoV-2 peptides

**Q.** For `C=CC[C@@H]1/C=C(\C)C[C@H](C)C[C@H](OC)[C@H]2O[C@@](O)(C(=O)C(=O)N3CCCC[C@H]3C(=O)O[C@H](/C(C)=C/[C@@H]3CC[C@@H](O)[C@H](OC)C3)[C@H](C)[C@@H](O)CC1=O)[C@H](C)C[C@@H]2OC` [Tacrolimus], which “proportion of IFNγ-producers” value ([1]; effect of Tacrolimus on T-cells of CMV-TCPs) is on record?
**A.** Its value is “significantly reduced”.

**Q.** What about the “proliferation of untouched Tregs” value [2] of the same molecule?
**A.** The value was “reduced the proliferation”.

**Q.** What about the “killing efficiency in non-edited NK92 cells” value [3] of the same molecule?
**A.** Its value is “decreased killing efficiency”.

**Q.** What about the “T-cell-mediated cytotoxic killing of target cells” value [4] of the same molecule?
**A.** Its value is “not affected”.

B1: sgRNA#2: FKBP12-specific guide RNA targeting SEQ ID NO: 1; full sequence SEQ ID NO: 17 (nucleic acid)
guide: GGGCGCACCUUCCCCAAGCGGUUUUAGAGCUAGAAAUAGCAAGUUAAAAUAAGGCUAGUCCGUUAUCAACUUGAAAAAGUGGCACCGAGUCGGUGC
modifications: synthetic chemically modified sgRNA, pattern not given here
**Q.** B1 was tested. Which “cytokine producers / T-cell function in the presence of Tacrolimus” value ([1]; 6 ng/ml Tacrolimus, TCPs edited with the named sgRNA) did it give?
**A.** The value was “superior function in maintaining T-cell function; also recorded: retained physiological levels of cytokine producers”.
